Assay results taken from patent publication US11149047B2, “Aryl imidazoles for treatment of cancer” (Aptose Biosciences Inc., priority 2017, dated 2021).

Legend:
[1] = test system: KLF4 and CDKN1A expression in AML cell lines; experiment: qRT-PCR of KLF4 and CDKN1A (p21) expression; format: cell-based
Protocol: Cells were treated with vehicle or COMPOUND I at various concentrations for 24 hours or at a single concentration for 1, 3, 6, 12, and 24 hours before harvesting. Cells were lysed by QiaShredder columns (QIAGEN, catalog #79656), total RNA was isolated using QIAGEN RNeasy Plus Mini Kit (catalog #74134), and cDNA was synthesized utilizing Transcriptor Universal cDNA master mix (Roche, catalog #05893151001) and then used for qRT-PCR analysis using FastStart essential DNA probes master mix (Roche, catalog #06402682001) and Roche LightCycler96. Primer probe pairs were purchased from IDT (Table 5). Expression was calculated as fold change over vehicle treated samples after normalizing to GAPDH […].
Previous studies reported upregulation of KLF4 and CDKN1A expression as a potential mechanism of APT0-COMPOUND I activity in tumors. […] The upregulation of CDKN1A mRNA increased with duration of exposure in all AML cell lines tested (FIGS. 15D and 15E). At later time points, CDKN1A expression began to decrease, likely due to increasing cell death. Induction of CDKN1A expression is typically associated with a subsequent G0-G1, cell-cycle arrest, which was observed following COMPOUND I treatment of solid tumor lines.

[2] = test system: gene expression in MV4-11 cells; experiment: RNA sequencing differential expression analysis; format: cell-based
Protocol: Treated MV4-11 cells were subjected to total RNA extraction (as for qRT-PCR analysis) and sequenced at the UCSD genomics core facility. RNA was processed using Illumina TruSeq and single end sequenced for 50-bp reads on the Illumina HiSeq4000. Data were analyzed by the McWeeny lab at Oregon Health and Science University (Portland, Oreg.). FASTQ files were assessed for read base distribution and sequence representation using FASTQC http://www.bioinformatics.babraham.ac.uk/projects/fastqc/. Reads were aligned to HG37 using SubRead v1.5.0-pl keeping uniquely mapped reads. Differential expression genes with less than 50 reads (across all 4 samples) were discarded. Raw data and processed files are available on GEO (https://www.ncbi.nlm.nih.gov/geo/query/acc.cgi?acc=GSE111949) accession number GSE111949.
To gain further insight into the pathways exploited by COMPOUND I to cause cell-cycle arrest and apoptosis, differential expression analysis was performed at both the mRNA and protein levels. MV4-11 cells were treated with either vehicle or 500 nmol/L COMPOUND I for 6 hours, and then gene expression was analyzed by RNA-seq. […] The RNA-seq analysis detected a 2-fold increase in KLF4 and a 4.5-fold increase in CDKN1A expression, which is validated by the qRT-PCR data with MV4-11 cells. The differentially regulated genes were analyzed for enriched pathways or GO (Gene Ontology) terms (FIG. 18A) utilizing the Broad Molecular Signatures database (http://software.broadinstitute.org/gsea/msigdb/index.jsp). As expected, apoptotic and cell-cycle pathways were enriched in the differentially expressed gene set. Unexpectedly, gene expression profiles after COMPOUND I treatment were also enriched in the DNA damage response (DDR) and endoplasmic reticulum (ER) stress/unfolded protein response pathways. […] Gene expression changes detected in MV4-11 cells raised the possibility that COMPOUND I could cause apoptosis by inducing DNA damage and activating cellular stress pathways, and/or by inhibition of expression of the MYC oncogene.

[3] = test system: γH2AX foci in CAOV3 cells; experiment: Immunofluorescence staining of γH2AX foci; format: cell-based, human; conditions: CAOV3, time course, FIG. 2C
Protocol: Cells were harvested and washed with PBS twice, fixed in Z-fix solution (buffered zinc formalin fixatives, Anatech, Inc, Creek, Mich.) and permeabilized and blocked with 0.3% Triton X-100 in PBS containing 5% bovine serum albumin. The cells were then incubated with γ-H2AX antibody (1:250 dilution in 0.3% Triton X-100 in PBS containing 1% bovine serum albumin) overnight followed by three washes. Cells were incubated for 1 h with fluorescent-conjugated secondary antibodies (1:1000 dilution) followed by three washes. Slides were mounted with ProLong Gold antifade reagent with 4′,6-diamidino-2-phenylindole (DAPI) to stain cell nuclei (Molecular Probes). Fluorescence was viewed with Keyence Fluorescent Microscope using a 100× objective and quantitated with Image J software (the National Institutes of Health).
The structure of COMPOUND I is similar to drugs that bind to quadruplex structures in DNA which results in strand breaks; this led to the investigation of whether COMPOUND I caused damage to DNA. The parental Raji cells were treated with 0.5 μM COMPOUND I for increasing periods of time and induction of DNA damage was assessed by accumulation of the phosphorylated forms of ATM and γH2AX measured by Western blot analysis. […]

Question: Which “AML cell lines with upregulated KLF4 expression” value ([1]; 24 hr treatment, FIG. 15A) does the source give for Cc1[nH]c2ccc(F)cc2c1-c1nc2c3cccnc3c3ncccc3c2[nH]1 [COMPOUND I, 2-(5-fluoro-2-methyl-1H-indol-3-yl)-1H-imidazo[4,5-f][1,10]phenanthroline] here?
Answer: 4 of 6

Question: What about the “CDKN1A (p21) expression” value ([1]; FIGS. 15B and 15C) of the same molecule?
Answer: induced in all AML cell lines in a concentration-dependent manner

Question: And the “genes differentially regulated (>2-fold change and P<0.05)” value ([2]; 500 nmol/L, 6 hours)?
Answer: 1,643 genes

Question: And the genes downregulated ([2]; 500 nmol/L, 6 hours)?
Answer: 1,227 genes

Question: And the genes upregulated ([2]; 500 nmol/L, 6 hours)?
Answer: 416 genes

Question: What about the “increase in BBC3” value ([2]; 500 nmol/L, 6 hours) of the same molecule?
Answer: 3.95 fold

Question: And the “increase in CDKN1A expression” value ([2]; 500 nmol/L, 6 hours)?
Answer: 4.5 fold

Question: What about the “increase in KLF4 expression” value ([2]; 500 nmol/L, 6 hours) of the same molecule?
Answer: 2 fold

Question: What about the “increase in PMAIP1” value ([2]; 500 nmol/L, 6 hours) of the same molecule?
Answer: 1.38 fold

Question: And the KIT expression ([2]; 6-hour treatment)?
Answer: decreased

Question: And the MYC expression ([2]; 6 hours)?
Answer: downregulated

Question: What about the “number of γH2AX foci” value [3] of the same molecule?
Answer: increase in the number of foci was detectable at 1 h
